From patent US20260224588A1, “BENZODIAZEPINONE-DERIVED INHIBITORS OF EGFR AND HER2” (The Research Foundation for the State University of New York, priority 2023, published 2026)

Tests used:
Experiment in all cases: KINOMEscan
Assay type in all cases: binding
Details in all cases: 1 μM of compound 4; read-out: POC
TGFBR2 = biological target: T1, TGFBR2 (Homo sapiens, UniProt P37173)
T1 construct: purchased Eurofins DiscoverX Corporation

YANK1 = biological target: T2, YANK1 (Homo sapiens, UniProt Q8WU08)
T2 construct: purchased Eurofins DiscoverX

ERK1 = biological target: T3, ERK1 (Homo sapiens, UniProt P27361)
T3 construct: purchased Eurofins DiscoverX Corporation

MEK2 = MEK2 (Homo sapiens, UniProt P36507)
CDC2L1 = CDC2L1 (Homo sapiens, UniProt P21127)
SIK2 = biological target: T4, SIK2 (Homo sapiens, UniProt Q9H0K1)
T4 construct: purchased Eurofins DiscoverX (KINOMEscan service)

ACVR2A = ACVR2A (Homo sapiens, UniProt P27037)
Chain of ACVR2A (P27037 20-513): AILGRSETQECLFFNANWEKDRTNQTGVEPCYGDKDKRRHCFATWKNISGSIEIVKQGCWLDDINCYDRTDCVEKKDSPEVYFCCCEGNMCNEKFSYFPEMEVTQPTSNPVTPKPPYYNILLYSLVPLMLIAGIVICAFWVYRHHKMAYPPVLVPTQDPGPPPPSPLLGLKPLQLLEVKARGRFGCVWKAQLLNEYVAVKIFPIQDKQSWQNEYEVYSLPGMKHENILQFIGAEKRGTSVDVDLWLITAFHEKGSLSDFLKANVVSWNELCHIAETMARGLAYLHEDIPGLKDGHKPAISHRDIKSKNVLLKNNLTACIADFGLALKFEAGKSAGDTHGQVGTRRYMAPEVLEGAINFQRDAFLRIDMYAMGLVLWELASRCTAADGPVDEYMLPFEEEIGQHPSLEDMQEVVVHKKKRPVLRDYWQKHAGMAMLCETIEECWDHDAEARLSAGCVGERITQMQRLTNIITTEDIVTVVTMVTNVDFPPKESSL

NEK3 = NEK3 (Homo sapiens, UniProt P51956)
Chain of NEK3 (P51956 whole entry): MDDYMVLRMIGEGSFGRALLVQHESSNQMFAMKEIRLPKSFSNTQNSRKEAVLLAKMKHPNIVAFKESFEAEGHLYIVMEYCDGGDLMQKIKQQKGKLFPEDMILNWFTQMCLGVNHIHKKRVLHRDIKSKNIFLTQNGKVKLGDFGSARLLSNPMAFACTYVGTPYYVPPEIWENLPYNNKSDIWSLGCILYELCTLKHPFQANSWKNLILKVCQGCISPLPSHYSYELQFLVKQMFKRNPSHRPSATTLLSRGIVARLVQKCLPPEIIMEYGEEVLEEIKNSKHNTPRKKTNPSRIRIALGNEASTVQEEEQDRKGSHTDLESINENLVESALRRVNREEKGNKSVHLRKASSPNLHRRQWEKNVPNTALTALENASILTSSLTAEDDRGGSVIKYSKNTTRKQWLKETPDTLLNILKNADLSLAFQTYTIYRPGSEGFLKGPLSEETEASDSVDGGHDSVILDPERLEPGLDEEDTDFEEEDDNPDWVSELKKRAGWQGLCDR

ZAK = biological target: T5, ZAK (Homo sapiens, UniProt Q9NYL2)
T5 construct: purchased Eurofins DiscoverX

[1] = biological target: T6, ABL1(F317L)-nonphosphorylated (Homo sapiens, UniProt P00519, F317L)
T6 construct: purchased Eurofins DiscoverX Corporation
T6 sequence (P00519 whole entry F317L): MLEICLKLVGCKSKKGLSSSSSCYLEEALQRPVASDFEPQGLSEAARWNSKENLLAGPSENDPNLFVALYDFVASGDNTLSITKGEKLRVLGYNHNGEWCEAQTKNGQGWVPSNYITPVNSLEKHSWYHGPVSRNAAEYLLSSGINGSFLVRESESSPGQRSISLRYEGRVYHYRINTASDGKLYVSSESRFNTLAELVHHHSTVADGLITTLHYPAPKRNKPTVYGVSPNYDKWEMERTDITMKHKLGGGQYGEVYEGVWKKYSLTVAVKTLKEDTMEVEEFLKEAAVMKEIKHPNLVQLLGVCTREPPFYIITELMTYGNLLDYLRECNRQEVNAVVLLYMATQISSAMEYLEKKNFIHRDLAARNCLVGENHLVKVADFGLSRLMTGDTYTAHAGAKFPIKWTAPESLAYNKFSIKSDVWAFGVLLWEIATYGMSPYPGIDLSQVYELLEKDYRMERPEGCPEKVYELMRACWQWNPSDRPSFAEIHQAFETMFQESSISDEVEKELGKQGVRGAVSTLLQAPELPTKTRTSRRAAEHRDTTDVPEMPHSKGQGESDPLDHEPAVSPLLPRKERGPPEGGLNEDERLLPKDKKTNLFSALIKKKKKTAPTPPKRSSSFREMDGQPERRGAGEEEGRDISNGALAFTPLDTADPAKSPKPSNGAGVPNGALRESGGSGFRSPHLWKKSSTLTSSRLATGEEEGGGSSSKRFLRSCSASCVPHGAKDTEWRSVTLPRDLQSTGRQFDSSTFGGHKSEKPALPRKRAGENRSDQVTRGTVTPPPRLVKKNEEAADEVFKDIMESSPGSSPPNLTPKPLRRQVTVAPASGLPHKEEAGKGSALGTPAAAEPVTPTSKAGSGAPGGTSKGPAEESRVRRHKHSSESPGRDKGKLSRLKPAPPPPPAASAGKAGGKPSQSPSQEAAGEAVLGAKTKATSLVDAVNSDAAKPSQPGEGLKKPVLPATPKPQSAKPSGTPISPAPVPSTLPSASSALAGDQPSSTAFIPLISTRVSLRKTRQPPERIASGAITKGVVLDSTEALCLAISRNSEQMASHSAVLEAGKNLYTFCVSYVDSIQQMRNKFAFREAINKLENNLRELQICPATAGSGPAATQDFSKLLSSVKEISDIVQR

GRK1 = biological target: T7, GRK1 (Homo sapiens, UniProt Q15835)
T7 construct: purchased Eurofins DiscoverX Corporation

ADCK4 = ADCK4 (Homo sapiens, UniProt Q96D53)
ULK3 = biological target: T8, ULK3 (Homo sapiens, UniProt Q6PHR2)
T8 construct: purchased Eurofins DiscoverX

MST4 = MST4 (Homo sapiens, UniProt Q9P289)
EGFR = EGFR (Homo sapiens, UniProt P00533)
PIK3CA(I800L) = PIK3CA(I800L) (Homo sapiens, UniProt P42336, I800L)
Chain of PIK3CA(I800L) (P42336 whole entry I800L): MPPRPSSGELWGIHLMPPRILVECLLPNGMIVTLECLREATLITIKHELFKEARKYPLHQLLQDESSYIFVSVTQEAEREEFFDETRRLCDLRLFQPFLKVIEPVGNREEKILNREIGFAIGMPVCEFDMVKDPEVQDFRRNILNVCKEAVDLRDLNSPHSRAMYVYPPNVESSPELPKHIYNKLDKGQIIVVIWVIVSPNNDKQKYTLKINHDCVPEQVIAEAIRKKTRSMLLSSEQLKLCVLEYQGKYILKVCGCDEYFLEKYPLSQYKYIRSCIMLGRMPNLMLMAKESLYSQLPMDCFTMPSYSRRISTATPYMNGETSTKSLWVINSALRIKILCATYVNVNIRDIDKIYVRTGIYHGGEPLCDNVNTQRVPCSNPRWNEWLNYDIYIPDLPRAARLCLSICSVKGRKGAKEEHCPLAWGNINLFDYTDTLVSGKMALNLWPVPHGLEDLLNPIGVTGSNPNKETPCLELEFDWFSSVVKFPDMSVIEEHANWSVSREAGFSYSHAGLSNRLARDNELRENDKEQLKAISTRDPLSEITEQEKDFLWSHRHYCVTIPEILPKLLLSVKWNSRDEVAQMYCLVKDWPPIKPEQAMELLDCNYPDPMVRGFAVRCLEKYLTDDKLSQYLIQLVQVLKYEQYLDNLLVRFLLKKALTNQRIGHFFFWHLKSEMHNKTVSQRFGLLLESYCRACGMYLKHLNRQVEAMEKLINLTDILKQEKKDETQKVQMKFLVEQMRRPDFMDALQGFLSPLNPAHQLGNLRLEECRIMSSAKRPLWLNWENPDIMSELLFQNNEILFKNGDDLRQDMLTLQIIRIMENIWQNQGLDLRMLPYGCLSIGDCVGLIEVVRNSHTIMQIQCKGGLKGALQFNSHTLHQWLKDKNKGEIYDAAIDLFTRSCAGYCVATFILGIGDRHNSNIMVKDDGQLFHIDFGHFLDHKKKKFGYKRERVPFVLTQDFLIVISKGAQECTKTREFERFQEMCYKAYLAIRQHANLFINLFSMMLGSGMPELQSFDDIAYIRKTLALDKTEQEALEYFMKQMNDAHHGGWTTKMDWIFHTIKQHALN

PIK4CB = PIK4CB (Homo sapiens, UniProt Q9UBF8)
[2] = biological target: T9, RSK4(Kin.Dom.2-C-terminal) (Homo sapiens, UniProt Q9UK32)
T9 construct: RSK4(Kin.Dom.2-C-terminal); purchased Eurofins DiscoverX (KINOMEscan service)

RIPK2 = biological target: T10, RIPK2 (Homo sapiens, UniProt O43353)
T10 construct: purchased Eurofins DiscoverX Corporation (KINOMEscan screening service)

EGFR(T790M) = biological target: T11, EGFR(T790M) (Homo sapiens, UniProt P00533, T790M)
T11 construct: purchased Eurofins DiscoverX (KINOMEscan service)
T11 sequence (P00533 25-1210 T790M): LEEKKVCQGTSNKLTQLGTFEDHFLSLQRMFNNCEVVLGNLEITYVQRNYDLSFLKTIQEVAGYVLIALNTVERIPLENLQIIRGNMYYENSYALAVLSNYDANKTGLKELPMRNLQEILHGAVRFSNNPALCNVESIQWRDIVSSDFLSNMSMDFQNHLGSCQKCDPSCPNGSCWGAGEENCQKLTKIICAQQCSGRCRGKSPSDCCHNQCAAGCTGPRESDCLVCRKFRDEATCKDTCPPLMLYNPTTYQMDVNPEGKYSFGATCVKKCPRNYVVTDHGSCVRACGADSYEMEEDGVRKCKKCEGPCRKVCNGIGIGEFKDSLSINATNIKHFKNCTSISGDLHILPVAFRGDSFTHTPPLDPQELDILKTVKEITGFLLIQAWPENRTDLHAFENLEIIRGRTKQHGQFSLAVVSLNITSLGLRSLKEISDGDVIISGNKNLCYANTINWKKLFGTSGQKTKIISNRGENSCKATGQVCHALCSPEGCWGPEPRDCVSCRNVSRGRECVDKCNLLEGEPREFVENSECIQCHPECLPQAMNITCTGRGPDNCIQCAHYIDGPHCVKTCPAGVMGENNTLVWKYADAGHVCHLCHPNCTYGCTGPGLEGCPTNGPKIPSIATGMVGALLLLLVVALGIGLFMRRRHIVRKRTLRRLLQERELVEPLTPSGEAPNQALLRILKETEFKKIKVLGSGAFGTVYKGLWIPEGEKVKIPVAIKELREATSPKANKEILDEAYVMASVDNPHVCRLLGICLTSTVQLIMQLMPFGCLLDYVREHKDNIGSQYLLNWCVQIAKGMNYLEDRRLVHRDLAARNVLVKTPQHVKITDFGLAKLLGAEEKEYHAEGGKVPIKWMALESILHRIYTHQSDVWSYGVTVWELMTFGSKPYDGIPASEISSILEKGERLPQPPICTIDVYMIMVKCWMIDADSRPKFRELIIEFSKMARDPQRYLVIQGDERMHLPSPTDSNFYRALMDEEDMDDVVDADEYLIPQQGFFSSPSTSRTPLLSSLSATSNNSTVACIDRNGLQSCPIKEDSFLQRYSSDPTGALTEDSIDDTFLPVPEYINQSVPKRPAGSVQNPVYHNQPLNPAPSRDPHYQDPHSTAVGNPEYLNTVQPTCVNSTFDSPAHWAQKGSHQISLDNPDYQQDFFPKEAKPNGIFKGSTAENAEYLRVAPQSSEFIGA

HASPIN = biological target: T12, HASPIN (Homo sapiens, UniProt Q8TF76)
T12 construct: purchased Eurofins DiscoverX Corporation

MAP4K3 = MAP4K3 (Homo sapiens, UniProt Q8IVH8)
FGR = biological target: T13, FGR (Homo sapiens, UniProt P09769)
T13 construct: purchased Eurofins DiscoverX Corporation

TRKB = biological target: T14, TRKB (Homo sapiens, UniProt Q16620)
T14 construct: purchased Eurofins DiscoverX Corporation

BUB1 = BUB1 (Homo sapiens, UniProt O43683)
[3] = biological target: T15, RSK4(Kin.Dom.1-N-terminal) (Homo sapiens, UniProt Q9UK32)
T15 construct: RSK4(Kin.Dom.1-N-terminal); purchased Eurofins DiscoverX (KINOMEscan service)

SgK110 = biological target: T16, SgK110 (Homo sapiens, UniProt P0C264)
T16 construct: purchased Eurofins DiscoverX (KINOMEscan service)

MEK3 = MEK3 (Homo sapiens, UniProt P46734)
SBK1 = biological target: T17, SBK1 (Homo sapiens, UniProt Q52WX2)
T17 construct: purchased Eurofins DiscoverX (KINOMEscan service)

KIT(V559D) = KIT(V559D) (Homo sapiens, UniProt P10721, V559D)
RET = biological target: T18, RET (Homo sapiens, UniProt P07949)
T18 construct: purchased Eurofins DiscoverX Corporation (KINOMEscan screening service)

MARK3 = MARK3 (Homo sapiens, UniProt P27448)
AKT2 = AKT2 (Homo sapiens, UniProt P31751)
MEK4 = MEK4 (Homo sapiens, UniProt P45985)
CDK5 = CDK5 (Homo sapiens, UniProt Q00535)

T1 sequence (P37173 23-567): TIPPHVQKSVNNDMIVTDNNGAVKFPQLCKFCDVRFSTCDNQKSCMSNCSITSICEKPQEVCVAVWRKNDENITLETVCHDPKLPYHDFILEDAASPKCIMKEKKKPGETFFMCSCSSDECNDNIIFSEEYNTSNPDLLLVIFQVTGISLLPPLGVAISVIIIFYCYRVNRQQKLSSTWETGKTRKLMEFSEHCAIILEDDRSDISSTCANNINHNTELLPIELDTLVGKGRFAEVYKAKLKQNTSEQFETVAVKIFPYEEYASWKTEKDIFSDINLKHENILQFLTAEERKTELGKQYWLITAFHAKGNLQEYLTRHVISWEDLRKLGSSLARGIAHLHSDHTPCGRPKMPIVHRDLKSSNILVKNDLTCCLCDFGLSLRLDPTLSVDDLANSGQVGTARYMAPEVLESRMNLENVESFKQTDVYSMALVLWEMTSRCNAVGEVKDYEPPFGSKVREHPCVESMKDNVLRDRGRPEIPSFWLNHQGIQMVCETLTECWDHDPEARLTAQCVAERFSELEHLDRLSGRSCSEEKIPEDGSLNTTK

SMILES: C=CC(=O)Nc1ccc(OC)c(Nc2cc(-c3[nH]c(CC)nc3-c3cccc(NC(=O)c4cccc5c4NC(=O)c4ccccc4N5)c3)ccn2)c1 [Compound 4, N-(3-(5-(2-((5-Acrylamido-2-methoxyphenyl)amino)pyridin-4-yl)-2-ethyl-1H-imidazol-4-yl)phenyl)-11-oxo-10,11-dihydro-5H-dibenzo[b,e][1,4]diazepine-9-carboxamide]
- remaining binding at 1 µM (TGFBR2): 75%
- remaining binding at 1 µM (YANK1): 84%
- remaining binding at 1 µM (ERK1): 99%
- remaining binding at 1 µM (MEK2): 100%
- remaining binding at 1 µM (CDC2L1): 100%
- remaining binding at 1 µM (SIK2): 100%
- remaining binding at 1 µM (ACVR2A): 77%
- remaining binding at 1 µM (NEK3): 100%
- remaining binding at 1 µM (ZAK): 87%
- remaining binding at 1 µM [1]: 37%
- remaining binding at 1 µM (GRK1): 94%
- remaining binding at 1 µM (ADCK4): 85%
- remaining binding at 1 µM (ULK3): 100%
- remaining binding at 1 µM (MST4): 94%
- remaining binding at 1 µM (EGFR): 17%
- remaining binding at 1 µM (PIK3CA(I800L)): 100%
- remaining binding at 1 µM (PIK4CB): 93%
- remaining binding at 1 µM [2]: 80%
- remaining binding at 1 µM (RIPK2): 62%
- remaining binding at 1 µM (EGFR(T790M)): 12%
- remaining binding at 1 µM (HASPIN): 100%
- remaining binding at 1 µM (MAP4K3): 9.5%
- remaining binding at 1 µM (FGR): 19%
- remaining binding at 1 µM (TRKB): 100%
- remaining binding at 1 µM (BUB1): 100%
- remaining binding at 1 µM [3]: 100%
- remaining binding at 1 µM (SgK110): 100%
- remaining binding at 1 µM (MEK3): 100%
- remaining binding at 1 µM (SBK1): 84%
- remaining binding at 1 µM (KIT(V559D)): 100%
- remaining binding at 1 µM (RET): 99%
- remaining binding at 1 µM (MARK3): 100%
- remaining binding at 1 µM (AKT2): 91%
- remaining binding at 1 µM (MEK4): 100%
- remaining binding at 1 µM (CDK5): 100%
